In patent US5948807A (priority 1997, dated 1999):
Counter-ions that a name gives are not always drawn.

Key:
[1] = target: SERT-1, cocaine binding site on the serotonin transporter (Homo sapiens, UniProt P31645); test: biochemical
kappa opioid receptor = kappa opioid receptor (Homo sapiens, UniProt P41145); test: biochemical; assay type: binding
mu opioid receptor = mu opioid receptor (Homo sapiens, UniProt P35372); test: biochemical; assay type: binding
[2] = target: SERT-2, paroxetine binding site on the serotonin transporter (Homo sapiens, UniProt P31645); test: biochemical
serotonin transporter = test: binding at serotonin transporter, comparison with SSRIs; conditions: vs citalopram, sertraline and fluoxetine
[3] = target: DAT, dopamine transporter (Homo sapiens, UniProt Q01959); test: radioligand binding, DAT ([^3 H]WIN35,428); conditions: radioligand [^3 H]WIN35,428; racemic; spiroindanamines as hydrochlorides; read-out: Affinity (IC50) DAT ([^3 H]WIN35,428)
Sequence of DAT, dopamine transporter (Q01959 whole entry): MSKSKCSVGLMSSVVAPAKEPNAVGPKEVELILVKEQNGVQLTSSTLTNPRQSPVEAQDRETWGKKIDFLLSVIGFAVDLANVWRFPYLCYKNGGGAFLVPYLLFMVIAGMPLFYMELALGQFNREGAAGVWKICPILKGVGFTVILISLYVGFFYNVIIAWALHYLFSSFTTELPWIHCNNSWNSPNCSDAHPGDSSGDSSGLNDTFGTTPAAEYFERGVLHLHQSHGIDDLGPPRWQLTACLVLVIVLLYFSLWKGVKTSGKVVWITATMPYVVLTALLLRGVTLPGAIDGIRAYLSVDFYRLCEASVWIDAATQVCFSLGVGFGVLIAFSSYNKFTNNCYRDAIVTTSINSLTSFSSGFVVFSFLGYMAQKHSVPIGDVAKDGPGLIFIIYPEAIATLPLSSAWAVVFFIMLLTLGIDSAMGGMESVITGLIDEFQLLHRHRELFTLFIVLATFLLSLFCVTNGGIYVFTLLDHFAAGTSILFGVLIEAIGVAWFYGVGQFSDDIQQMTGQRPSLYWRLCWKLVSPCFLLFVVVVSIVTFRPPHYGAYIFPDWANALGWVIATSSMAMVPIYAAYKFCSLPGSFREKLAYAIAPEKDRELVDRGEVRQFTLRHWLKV

Sequence of kappa opioid receptor (P41145 whole entry): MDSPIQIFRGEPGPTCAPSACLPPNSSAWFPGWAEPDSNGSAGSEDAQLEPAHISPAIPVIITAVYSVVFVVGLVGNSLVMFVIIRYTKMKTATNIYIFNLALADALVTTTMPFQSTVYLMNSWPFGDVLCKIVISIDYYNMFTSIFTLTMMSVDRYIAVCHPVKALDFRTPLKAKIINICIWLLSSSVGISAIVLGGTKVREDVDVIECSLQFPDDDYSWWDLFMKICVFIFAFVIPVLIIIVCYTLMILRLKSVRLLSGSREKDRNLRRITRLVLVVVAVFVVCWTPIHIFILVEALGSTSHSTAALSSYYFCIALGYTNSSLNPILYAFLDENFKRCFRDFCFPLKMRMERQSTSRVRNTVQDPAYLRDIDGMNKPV
Sequence of SERT-2, paroxetine binding site on the serotonin transporter (P31645 whole entry): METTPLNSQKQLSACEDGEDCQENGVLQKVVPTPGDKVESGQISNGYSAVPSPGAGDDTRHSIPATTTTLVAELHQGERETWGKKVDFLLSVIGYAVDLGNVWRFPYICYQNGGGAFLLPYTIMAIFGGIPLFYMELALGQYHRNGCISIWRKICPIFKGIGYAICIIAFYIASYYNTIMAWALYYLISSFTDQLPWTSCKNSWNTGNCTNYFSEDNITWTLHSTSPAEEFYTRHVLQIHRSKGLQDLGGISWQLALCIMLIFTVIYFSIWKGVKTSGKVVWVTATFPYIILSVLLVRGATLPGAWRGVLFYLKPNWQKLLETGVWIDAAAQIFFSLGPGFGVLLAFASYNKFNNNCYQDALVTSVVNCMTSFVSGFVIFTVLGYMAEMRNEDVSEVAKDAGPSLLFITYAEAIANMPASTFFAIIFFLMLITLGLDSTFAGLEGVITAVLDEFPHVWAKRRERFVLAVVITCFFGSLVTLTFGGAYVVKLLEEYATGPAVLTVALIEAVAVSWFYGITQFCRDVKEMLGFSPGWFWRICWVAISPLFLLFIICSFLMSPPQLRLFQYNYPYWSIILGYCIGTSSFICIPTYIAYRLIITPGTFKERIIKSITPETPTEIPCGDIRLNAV
Sequence of SERT-1, cocaine binding site on the serotonin transporter (P31645 whole entry): as above
Sequence of mu opioid receptor (P35372 whole entry): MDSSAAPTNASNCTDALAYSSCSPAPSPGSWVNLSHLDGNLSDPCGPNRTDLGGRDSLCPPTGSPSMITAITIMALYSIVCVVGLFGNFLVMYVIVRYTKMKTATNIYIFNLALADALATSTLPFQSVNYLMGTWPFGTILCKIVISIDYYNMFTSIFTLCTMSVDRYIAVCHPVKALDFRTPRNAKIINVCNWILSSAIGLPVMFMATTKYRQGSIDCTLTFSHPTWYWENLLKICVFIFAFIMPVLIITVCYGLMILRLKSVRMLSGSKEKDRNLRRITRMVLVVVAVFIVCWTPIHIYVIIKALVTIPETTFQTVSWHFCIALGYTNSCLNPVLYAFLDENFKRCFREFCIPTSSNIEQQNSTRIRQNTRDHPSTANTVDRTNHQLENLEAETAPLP

With `COc1ccc2c(c1)C1(CC(=O)NC1=O)CC2c1ccc(Cl)c(Cl)c1` (racemic) [Compound 1c, 3-(3,4-Dichlorophenyl)-6-methoxyspiro[indan-1,3'-pyrrolidin]-2',5'-dione] the IC50 [1] was 0.25 µM, the IC50 (kappa opioid receptor) was > 100 µM and the IC50 (mu opioid receptor) was 100 µM. For the same compound, the IC50 [2] was > 100 µM and the “affinity at SERT-2 (in words)” value [2] was “higher affinity for SERT-2 than the basic spiroindanamines 3d and 4a”.

With `c1ccc(C2CC3(CCNC3)c3ccccc32)cc1` (racemic) [Compound 3a, 3-Phenylspiro[indan-1,3'-pyrrolidine]] the IC50 [1] was 0.01 µM, the “affinity for SERT-1 (in words)” value [1] was “low nanomolar affinity” and the IC50 (kappa opioid receptor) was 10 µM. The “affinity for the serotonin transporter relative to SSRIs” value (serotonin transporter) was “comparable to or higher than that of other specific serotonin re-uptake inhibitors (SSRIs)”, the IC50 [3] was 0.2 µM and the IC50 (mu opioid receptor) was 0.5 µM. For the same compound, the IC50 [2] was 2.5 µM and the “affinity at SERT-2 (in words)” value [2] was “moderate to weak affinity”.

For `COc1ccc2c(c1)C1(CCNC1)CC2c1ccc(Cl)c(Cl)c1` (racemic) [Compound 3c, 3-(3,4-Dichlorophenyl)-6-methoxyspiro[indan-1,3'-pyrrolidine]], the IC50 [1] was 0.002 µM, the “affinity for SERT-1 (in words)” value [1] was “low nanomolar affinity” and the IC50 (kappa opioid receptor) was 80 µM. The “affinity for the serotonin transporter relative to SSRIs” value (serotonin transporter) was “comparable to or higher than that of other specific serotonin re-uptake inhibitors (SSRIs)”, the IC50 [3] was 0.15 µM and the IC50 (mu opioid receptor) was 5 µM. For the same compound, the IC50 [2] was 0.4 µM and the “affinity at SERT-2 (in words)” value [2] was “moderate to weak affinity”.

`Oc1ccc2c(c1)C1(CCNC1)CC2c1ccc(Cl)c(Cl)c1` (racemic) [Compound 3d, 3-(3,4-Dichlorophenyl)-6-hydroxyspiro[indan-1,3'-pyrrolidine]] gave an IC50 [1] of 0.75 µM, an IC50 (kappa opioid receptor) of 1.52 µM and an IC50 [3] of 0.73 µM. For the same compound, the IC50 (mu opioid receptor) was 2.9 µM and the IC50 [2] was 0.3 µM.

Compound `c1ccc(C2CC3(CCN(CC4CC4)C3)c3ccccc32)cc1` (racemic) [Compound 4a, 1'-Cyclopropylmethyl-3-phenylspiro[indan-1,3'-pyrrolidine] hydrochloride] has an IC50 [1] of 2.41 µM, an IC50 (kappa opioid receptor) of 1 µM and an IC50 [3] of 2.9 µM. The IC50 (mu opioid receptor) was 0.98 µM and the IC50 [2] was 2 µM.

In the case of `O=C1C[C@@]2(C[C@@H](c3ccccc3)c3ccccc32)C(=O)N1` (relative stereo) [Compound 1a, cis-3-Phenylspiro[indan-1,3'-pyrrolidine]-2',5'-dione], the IC50 [1] is reported as 26.7 µM, the IC50 (kappa opioid receptor) is reported as > 100 µM and the IC50 (mu opioid receptor) is reported as 100 µM. For the same compound, the IC50 [2] was > 100 µM.
